Laboratory results published in ChEMBL document CHEMBL1201862, “PubChem BioAssay data set” (2004).
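Cultured in 96-well plates, cells were exposed to test compound for 48 hours across five concentrations. Here, GI50 denotes the concentration required for 50% inhibition of growth.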 Active and inactive are the calls of the source. Cut-off read from the data, not from the text of the source: active = GI50 up to about 1.1 µM and inactive = higher.

Columns and labels:
Assay in all cases: NCI tumour cell line growth inhibition, 48 h
LOX IMVI = test system: LOX IMVI
HCC 2998 = test system: HCC 2998
SF-295 = test system: SF-295
SK-MEL-28 = test system: SK-MEL-28
K562 = test system: K562
A549 = test system: A549
DMS-273 = test system: DMS-273
CAKI-1 = test system: CAKI-1
NCI-H226 = test system: NCI-H226
KM12 = test system: KM12
SNB-78 = test system: SNB-78
OVCAR-4 = test system: OVCAR-4
NCI-H23 = test system: NCI-H23
NCI-H522 = test system: NCI-H522
U-251 = test system: U-251
HCT-116 = test system: HCT-116
UO-31 = test system: UO-31
OVCAR-5 = test system: OVCAR-5
M19-MEL = test system: M19-MEL
DLD-1 = test system: DLD-1
EKVX = test system: EKVX
TK-10 = test system: TK-10
DMS-114 = test system: DMS-114
SF-268 = test system: SF-268
SK-MEL-2 = test system: SK-MEL-2
SR = test system: SR
OVCAR-8 = test system: OVCAR-8
Malme-3M = test system: Malme-3M
NCI-H460 = test system: NCI-H460
SK-OV-3 = test system: SK-OV-3
OVCAR-3 = test system: OVCAR-3
COLO 205 = test system: COLO 205
HOP-62 = test system: HOP-62
CCRF-CEM = test system: CCRF-CEM
SK-MEL-5 = test system: SK-MEL-5
786-0 = test system: 786-0
HT-29 = test system: HT-29
SW-620 = test system: SW-620
SF-539 = test system: SF-539
ACHN = test system: ACHN
IGROV-1 = test system: IGROV-1
UACC-62 = test system: UACC-62
SNB-19 = test system: SNB-19
SNB-75 = test system: SNB-75
HOP-92 = test system: HOP-92
SN12C = test system: SN12C
LXFL 529 = test system: LXFL 529
RXF 393 = test system: RXF 393
M14 = test system: M14

Measured: GI50

CCN(CC)CCCn1cnc2ncccc2c1=O
inactive: LOX IMVI > 100 µM | HCC 2998 > 10 µM | SF-295 > 100 µM | SK-MEL-28 > 100 µM | K562 > 100 µM | A549 > 100 µM | DMS-273 > 100 µM | CAKI-1 > 100 µM | NCI-H226 > 100 µM | KM12 > 100 µM | SNB-78 > 100 µM | OVCAR-4 > 100 µM | NCI-H23 > 100 µM | NCI-H522 > 100 µM | U-251 > 100 µM | HCT-116 > 100 µM | UO-31 > 100 µM | OVCAR-5 > 100 µM | M19-MEL > 100 µM | DLD-1 > 100 µM | EKVX > 100 µM | TK-10 > 100 µM | DMS-114 > 100 µM | SF-268 > 100 µM | SK-MEL-2 > 100 µM | SR > 100 µM | OVCAR-8 > 100 µM | Malme-3M > 100 µM | NCI-H460 > 100 µM | SK-OV-3 > 100 µM | OVCAR-3 > 100 µM | COLO 205 > 100 µM | HOP-62 > 100 µM | CCRF-CEM > 100 µM | SK-MEL-5 > 100 µM | 786-0 > 100 µM | HT-29 > 100 µM | SW-620 > 100 µM | SF-539 > 100 µM | ACHN > 100 µM | IGROV-1 > 100 µM | UACC-62 > 100 µM | SNB-19 > 100 µM | SNB-75 > 100 µM | HOP-92 > 100 µM | SN12C > 100 µM | LXFL 529 > 100 µM | RXF 393 > 100 µM | M14 > 100 µM
